Source: PMC12794142 (2025)

Assays:
[1] = system: AT11 (DNA, G4) TGGTGGTGGTTGTTGTGGTGGTGGTGGT; experiment: 1H NMR titration, NOESY; conditions: 70 mM KCl, 20 mM potassium phosphate; pH 7.0, 90%/10% H2O/D2O, DMSO up to 3%
[2] = system: AT11 (DNA, G4) TGGTGGTGGTTGTTGTGGTGGTGGTGGT; experiment: CD melting at 262 nm; conditions: 70 mM KCl, 20 mM potassium phosphate, pH 7.0, 2 μM DNA, 20 μM ligand
[3] = system: AT11 (DNA, G4) TGGTGGTGGTTGTTGTGGTGGTGGTGGT; experiment: fluorescence titration (ligand intrinsic emission); conditions: 70 mM KCl, 20 mM potassium phosphate; for K d: per site
[4] = system: AT11 (DNA, G4) TGGTGGTGGTTGTTGTGGTGGTGGTGGT; experiment: 1H NMR titration; conditions: 70 mM KCl, 20 mM potassium phosphate; pH 7.0, 90%/10% H2O/D2O; 3'-end G-quartet preferred

| ΔT m [2] | K d [3] | binding ([3]; pH 7.0, 20 °C, 2 μM ligand, alternating trend, not fittable) | ΔT m ([2]; additional inflection at 87 °C) | K d ([3]; pH 7.0, 20 °C, 2 μM ligand) | K d ([3]; pH 7.0, 20 °C, 2 μM ligand, average over multiple binding events) | binding [4] | Compound | binding [1] |
| --- | --- | --- | --- | --- | --- | --- | --- | --- |
| +1 °C | 2.0 ± 0.4 µM | – | – | – | – | – | CC[C@H]1C[C@@H]2C[C@H]3c4[nH]c5ccc(OC)cc5c4CCN(C2)[C@@H]13 | yes |
| +1 °C | – | yes | – | – | – | – | CN1Cc2c(ccc3c2OCO3)[C@@H]2[C@H]1c1cc3c(cc1C[C@@H]2O)OCO3 | yes |
| – | – | – | +3 °C | 1.0 ± 0.7 µM | – | – | COc1cc2c(cc1OC)-c1c3c(cc4c1[C@H](C2)N(C)CC4)OCO3 | yes |
| +1 °C | – | – | – | – | 1.7 ± 0.3 µM | yes | COc1ccc2c(c1O)-c1c3c(cc4c1[C@H](C2)N(C)CC4)OCO3 | – |
